The values that follow come from patent publication US20060134095A1, “Antioxidative composition and composition for external use” (priority 2003, published 2006).

Series [1] can be described thus: superoxide scavenging activity by ESR spin trapping (hypoxanthine/xanthine oxidase, DMPO).
Protocol: (2) In addition, according to the direction in the following Table 3, each of the samples was put into a 1.5 ml Eppendorf tube, XOD was added, and reaction was carried out for 30 seconds. Subsequently, the measurement was carried out by ESR, whereby the superoxide scavenging activities measured by ESR spin trapping were evaluated. The measuring method was according to the case of the hydroxyl radical.
The measurement conditions of ESR were as follows. Power: 4 mW, Field: 336±5, Sweep Time: 1 min., Modulation Width: 0.1 mT, Amp: 790, Response Time: 0.3 sec. Evaluation was performed with the ratio of the signal amplitude of O2 to that of the paramagnetic internal standard, MnO.
Series [2] is described as follows: hydroxy radical scavenging activity by ESR spin trapping (H2O2/FeSO4, DMPO). Particulars: for hydroxyl radical scavenging activity (in words) / hydroxyl radical scavenging activity compared with pro-vitamin C (A2P: ascorbic acid-2-phosphate Na): ESR spin trapping, Table 2; for Remaining amount of hydroxyl radicals: relative signal intensity (DMPO-OH/MnO).
Protocol: (1) With regard to the foregoing samples, according to the direction in the following Table 1, the sample was put into a 1.5 ml Eppendorf tube, H2O2 was added, and reaction was carried out for 30 seconds after the addition for H2O2. Subsequently, the measurement was carried out by ESR, and the hydroxy radical scavenging activities of the fullerenes measured by the ESR spin trapping method were evaluated.
For preparation of the reagents, milli Q was used. As for the ESR apparatus, JES-FR30 (JEOL Co.) was used, and measurement was carried out using a high sensitive ESR water-soluble flat cell (LABOTEC Co.). The measurement conditions of ESR were as follows. Power: 4 mW, Field: 336±5, Sweep Time: 1 min., Modulation Width: 0.32 mT, Amp: 400, Response Time: 0.3 sec. Evaluation was performed with the ratio of the signal amplitude of OH to that of the paramagnetic internal standard, MnO.
For series [3], the system named is human skin epidermal keratinocytes. The experiment in a line: antioxidative effect against UVB in keratinocytes (CDCFH-DA fluorescence, intracellular peroxide/hydrogen peroxide). It counts as cell-based. Particulars: UVB 40 mJ/cm^2, samples added before irradiation, FIG. 1. How it is done: (3) With regard to various samples, their antioxidative effects against UVB were evaluated by using keratinocytes, a human major cell type.
The results are shown in Pig. 1.

Consider Fullerene modified with PEG [Sample F3], for which, in series [1] (ESR spin trapping, Table 4), the “radical scavenging activity in the superoxide test (in words; printed as hydroxyl radical scavenging activities)” value is recorded as “significant” and the “superoxide anion radical scavenging activity compared with pro-vitamin C (A2P)” value is reported as “significantly superior”. Besides, in series [2], the “hydroxyl radical scavenging activity (in words)” value is on record as “significant” and the “hydroxyl radical scavenging activity compared with pro-vitamin C (A2P: ascorbic acid-2-phosphate Na)” value is “slightly superior to or equal to”.

With `CCO` [Ethanol, reference compound], the “Remaining amount of superoxide anion radical” value in series [1] (relative signal intensity (DMPO-OOH/MnO), ethanol, concentration not given, control (Milli-Q water) 3.0) was found to be 7.5. The “Remaining amount of hydroxyl radicals” value in series [2] (ethanol, concentration not given, control (Milli-Q water) 3.0) turned out to be 1.3.

Regarding Hydroxylated fullerene [Sample F6], in series [3], the “peroxide/hydrogen peroxide scavenging activity in skin cells (antioxidative effect) compared with pro-vitamin C (Asc2P-Na)” value is on record as “equal”. Besides, the “superoxide anion radical scavenging activity compared with pro-vitamin C (A2P)” value in series [1] (ESR spin trapping, Table 4) is listed as “equal to or more than”. In series [2], the “hydroxyl radical scavenging activity (in words)” value was “significant” and the “hydroxyl radical scavenging activity compared with pro-vitamin C (A2P: ascorbic acid-2-phosphate Na)” value was “slightly superior to or equal to”. In addition, in series [2] (sample 9.26 μM, solubilized in 70% ethanol, diluted to 0.2%, control 3.0), the “Remaining amount of hydroxyl radicals” value is reported as 0.6.
